Consider 18 compounds from US20230257372A1 (CHONG KUN DANG PHARMACEUTICAL CORP., priority 2020, published 2023).

For experiment [1], the target named is T1, human recombinant HDAC1 (Homo sapiens, UniProt Q13547).
T1 construct: purchased Enzo Life Science, Inc. BML-SE456
In words: HDAC1 enzyme activity inhibition (HDAC Fluorimetric Drug Discovery Kit). Format: biochemical. Particulars: read-out: HDAC1. A digest of the protocol: (§1)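 Five-fold compound dilutions incubated with […] recombinant enzyme and 10 μM fluorogenic Fluor de Lys substrate, 60 min at 30° C. Fluor de Lys Developer II then added for 30 min to generate the fluorescent read-out.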

Experiment [2] has as its target T2, human recombinant HDAC6 (Homo sapiens, UniProt Q9UBN7).
T2 construct: purchased Calbiochem Inc. 382180
T2 sequence (Q9UBN7 1-1215): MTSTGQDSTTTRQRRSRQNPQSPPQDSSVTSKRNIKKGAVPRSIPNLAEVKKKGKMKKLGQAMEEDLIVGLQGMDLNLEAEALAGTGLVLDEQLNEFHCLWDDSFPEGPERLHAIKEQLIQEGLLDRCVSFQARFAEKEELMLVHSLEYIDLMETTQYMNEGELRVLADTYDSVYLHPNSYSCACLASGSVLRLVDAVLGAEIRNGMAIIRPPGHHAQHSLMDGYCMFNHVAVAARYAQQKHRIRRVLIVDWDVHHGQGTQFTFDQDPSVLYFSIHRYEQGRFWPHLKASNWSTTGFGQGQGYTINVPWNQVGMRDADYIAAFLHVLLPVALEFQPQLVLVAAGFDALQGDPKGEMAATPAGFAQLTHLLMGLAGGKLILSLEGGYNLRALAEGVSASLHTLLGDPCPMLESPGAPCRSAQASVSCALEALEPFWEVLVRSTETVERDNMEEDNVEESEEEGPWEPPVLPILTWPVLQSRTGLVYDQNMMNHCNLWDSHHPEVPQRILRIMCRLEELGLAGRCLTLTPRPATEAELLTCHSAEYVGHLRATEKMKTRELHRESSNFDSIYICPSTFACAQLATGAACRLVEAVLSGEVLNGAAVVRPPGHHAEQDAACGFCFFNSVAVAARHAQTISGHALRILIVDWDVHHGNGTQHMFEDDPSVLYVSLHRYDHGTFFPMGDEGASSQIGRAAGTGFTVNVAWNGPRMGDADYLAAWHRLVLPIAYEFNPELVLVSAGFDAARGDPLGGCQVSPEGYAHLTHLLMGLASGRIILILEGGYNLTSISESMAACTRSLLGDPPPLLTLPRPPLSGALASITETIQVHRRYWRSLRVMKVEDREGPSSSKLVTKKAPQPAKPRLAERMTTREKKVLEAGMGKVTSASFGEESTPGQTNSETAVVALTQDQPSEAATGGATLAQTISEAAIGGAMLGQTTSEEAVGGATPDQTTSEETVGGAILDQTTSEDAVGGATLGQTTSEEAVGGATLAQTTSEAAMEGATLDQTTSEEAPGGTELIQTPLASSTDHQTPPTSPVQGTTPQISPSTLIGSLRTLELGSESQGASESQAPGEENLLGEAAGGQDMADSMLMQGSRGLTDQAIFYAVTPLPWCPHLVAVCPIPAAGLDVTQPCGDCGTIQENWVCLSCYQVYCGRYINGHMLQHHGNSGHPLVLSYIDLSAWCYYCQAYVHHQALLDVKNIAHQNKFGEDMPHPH
In words: HDAC6 enzyme activity inhibition (HDAC Fluorimetric Drug Discovery Kit). Format: biochemical. The method, boiled down:
as §1

Setting [3] is: human recombinant HDAC1, Fluor de Lys substrate, 30° C. 60 minutes.
The mark [4] stands for this setting: human recombinant HDAC6, same protocol as HDAC1.
[5] abbreviates: human recombinant HDAC1, IC50 calculated with GraphPad Prism.
Setting [6] is: human recombinant HDAC6, IC50 calculated with GraphPad Prism.

The structures appear in SMILES notation. Like-named read-outs stand apart in the source and are kept apart here.

T1 sequence (Q13547 whole entry): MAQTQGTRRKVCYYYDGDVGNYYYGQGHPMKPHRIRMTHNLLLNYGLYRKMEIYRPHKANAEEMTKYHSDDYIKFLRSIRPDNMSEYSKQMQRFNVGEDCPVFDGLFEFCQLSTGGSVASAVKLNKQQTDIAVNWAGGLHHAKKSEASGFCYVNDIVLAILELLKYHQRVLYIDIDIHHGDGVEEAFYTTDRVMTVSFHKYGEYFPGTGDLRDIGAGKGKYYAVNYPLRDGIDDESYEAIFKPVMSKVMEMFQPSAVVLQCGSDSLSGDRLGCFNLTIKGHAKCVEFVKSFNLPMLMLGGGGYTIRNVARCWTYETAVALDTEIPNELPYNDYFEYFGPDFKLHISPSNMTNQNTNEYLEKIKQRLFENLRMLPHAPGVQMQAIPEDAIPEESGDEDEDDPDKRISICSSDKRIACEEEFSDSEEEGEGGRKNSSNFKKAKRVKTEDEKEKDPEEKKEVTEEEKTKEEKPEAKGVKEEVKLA

On to `CC1CCN(Cc2ccc(-c3cn(Cc4ccc(-c5nnc(C(F)F)o5)cc4F)nn3)cc2)CC1` [Compound 4611, 2-(difluoromethyl)-5-(3-fluoro-4-((4-(4-((4-methylpiperidin-1-yl)methyl)phenyl)-1H-1,2,3-triazol-1-yl)methyl)phenyl)-1,3,4-oxadiazole], for which the IC50 in experiment [1] (setting [3]) is above 50000 nM; in experiment [2] (setting [4]), 17.9 nM. Besides, the “HDAC6 selectivity (fold)” value in experiment [2] (HDAC6 over HDAC1) was 2793 fold.

In the case of `Fc1cc(-c2nnc(C(F)F)o2)ccc1Cn1cc(-c2cccc(Br)n2)nn1` [Compound 17263, 2-(4-((4-(6-bromopyridin-2-yl)-1H-1,2,3-triazol-1-yl)methyl)-3-fluorophenyl)-5-(difluoromethyl)-1,3,4-oxadiazole], the IC50 in experiment [1] (setting [3]) was above 50000 nM; in experiment [2] (setting [4]), 44.4 nM. Further, the “HDAC6 selectivity (fold)” value in experiment [2] (HDAC6 over HDAC1) amounted to 1126 fold.

Regarding `OCc1c(-c2ccccc2)nnn1Cc1ccc(-c2nnc(C(F)F)o2)cn1` [Compound 4478, (1-((5-(5-(difluoromethyl)-1,3,4-oxadiazol-2-yl)pyridin-2-yl)methyl)-4-phenyl-1H-1,2,3-triazol-5-yl)methanol], the IC50 is above 50000 nM in experiment [1] (setting [5]) and 114 nM in experiment [2] (setting [6]). For the same compound, the “HDAC6 selectivity (fold)” value in experiment [2] (HDAC1 IC50 / HDAC6 IC50) was determined as 437 fold.

`CCC(=O)N1CCN(c2cccc(-c3cn(Cc4ccc(-c5nnc(C(F)F)o5)cc4)nn3)c2)CC1` [Compound 4372, 1-(4-(3-(1-(4-(5-(difluoromethyl)-1,3,4-oxadiazol-2-yl)benzyl)-1H-1,2,3-triazol-4-yl)phenyl)piperazin-1-yl)propan-1-one]: the IC50 was above 50000 nM in experiment [1] (setting [5]) and 69 nM in experiment [2] (setting [6]). The “HDAC6 selectivity (fold)” value in experiment [2] (HDAC1 IC50 / HDAC6 IC50) was found to be 724 fold.

On to `FC(F)c1nnc(-c2ccc(Cn3cc(-c4cccc5[nH]cc(CN6CCOCC6)c45)nn3)nc2)o1` [Compound 4023, 4-((4-(1-((5-(5-(difluoromethyl)-1,3,4-oxadiazol-2-yl)pyridin-2-yl)methyl)-1H-1,2,3-triazol-4-yl)-1H-indol-3-yl)methyl)morpholine], for which the figures for the IC50 in experiment [1] (setting [5]) and in experiment [2] (setting [6]) were above 50000 nM and 1560 nM, respectively. For the same compound, in experiment [2] (HDAC1 IC50 / HDAC6 IC50), the “HDAC6 selectivity (fold)” value is recorded as 32 fold.

With `FC(F)c1nnc(-c2ccc(Cn3cc(-c4cccc5c4CN(C4CCC4)C5)nn3)cc2)o1` [Compound 4532, 2-(4-((4-(2-cyclobutylisoindolin-4-yl)-1H-1,2,3-triazol-1-yl)methyl)phenyl)-5-(difluoromethyl)-1,3,4-oxadiazole], the results for the IC50 in experiment [1] (setting [3]) and in experiment [2] (setting [4]) were above 50000 nM and 153 nM, respectively. Also, the “HDAC6 selectivity (fold)” value in experiment [2] (HDAC6 over HDAC1) is 327 fold.

Consider `CN1CC(N2CCC(c3cccc(-c4cn(Cc5ncc(-c6nnc(C(F)F)o6)cc5F)nn4)c3)CC2)C1` [Compound 18877, 2-(difluoromethyl)-5-(5-fluoro-6-((4-(3-(1-(1-methylazetidin-3-yl)piperidin-4-yl)phenyl)-1H-1,2,3-triazol-1-yl)methyl)pyridin-3-yl)-1,3,4-oxadiazole], for which the IC50 in experiment [1] (setting [3]) was above 50000 nM; in experiment [2] (setting [4]) it was 136 nM. Besides, in experiment [2] (HDAC6 over HDAC1), the “HDAC6 selectivity (fold)” value was determined as 367 fold.

Take `FC(F)c1nnc(-c2ccc(Cn3cc(-c4cccc(N5CCOCC5)c4)nn3)cc2)o1` [Compound 4338, 4-(3-(1-(4-(5-(difluoromethyl)-1,3,4-oxadiazol-2-yl)benzyl)-1H-1,2,3-triazol-4-yl)phenyl)morpholine]: the results for the IC50 in experiment [1] (setting [5]) and in experiment [2] (setting [6]) were above 50000 nM and 65.3 nM, respectively. Besides, in experiment [2] (HDAC1 IC50 / HDAC6 IC50), the “HDAC6 selectivity (fold)” value was found to be 765 fold.

For the compound `CN1CCN(c2ccccc2-c2cn(Cc3ccc(-c4nnc(C(F)F)o4)cn3)nn2)CC1` [Compound 4106, 2-(difluoromethyl)-5-(6-((4-(2-(4-methylpiperazin-1-yl)phenyl)-1H-1,2,3-triazol-1-yl)methyl)pyridin-3-yl)-1,3,4-oxadiazole], the figures for the IC50 in experiment [1] (setting [5]) and in experiment [2] (setting [6]) were above 50000 nM and 57 nM, respectively. Further, the “HDAC6 selectivity (fold)” value in experiment [2] (HDAC1 IC50 / HDAC6 IC50) is given as 877 fold.

For the compound `FC(F)c1nnc(-c2ccc(Cn3cc(-c4ccc(CNC5COC5)cc4)nn3)cc2)o1` [Compound 4556, N-(4-(1-(4-(5-(difluoromethyl)-1,3,4-oxadiazol-2-yl)benzyl)-1H-1,2,3-triazol-4-yl)benzyl)oxetan-3-amine], the IC50 is above 50000 nM in experiment [1] (setting [3]) and 73.3 nM in experiment [2] (setting [4]). Besides, the “HDAC6 selectivity (fold)” value in experiment [2] (HDAC6 over HDAC1) worked out at 682 fold.

Take `FC(F)c1nnc(-c2ccc(Cn3cc(C4=CCCCC4)nn3)nc2)o1` [Compound 3879, 2-(6-((4-(cyclohex-1-ene-1-yl)-1H-1,2,3-triazol-1-yl)methyl)pyridin-3-yl)-5-(difluoromethyl)-1,3,4-oxadiazole]: the figures for the IC50 in experiment [1] (setting [5]) and in experiment [2] (setting [6]) were above 50000 nM and 64.6 nM, respectively. Further, in experiment [2] (HDAC1 IC50 / HDAC6 IC50), the “HDAC6 selectivity (fold)” value is recorded as 773 fold.

As for `CC1CCN(Cc2ccc(-c3cn(Cc4ncc(-c5nnc(C(F)F)o5)cc4F)nn3)s2)CC1` [Compound 18310, 2-(difluoromethyl)-5-(5-fluoro-6-((4-(5-((4-methylpiperidin-1-yl)methyl)thiophen-2-yl)-1H-1,2,3-triazol-1-yl)methyl)pyridin-3-yl)-1,3,4-oxadiazole], the IC50 in experiment [1] (setting [3]) is above 50000 nM; in experiment [2] (setting [4]) it was 50.7 nM. The “HDAC6 selectivity (fold)” value in experiment [2] (HDAC6 over HDAC1) is given as 986 fold.

Take `CCN1CCN(Cc2ccc(-c3cn(Cc4ccc(-c5nnc(C(F)F)o5)cc4F)nn3)cc2)CC1` [Compound 4474, 2-(difluoromethyl)-5-(4-((4-(4-((4-ethylpiperazin-1-yl)methyl)phenyl)-1H-1,2,3-triazol-1-yl)methyl)-3-fluorophenyl)-1,3,4-oxadiazole]: the IC50 in experiment [1] (setting [5]) was above 50000 nM; in experiment [2] (setting [6]), 41.2 nM. Also, the “HDAC6 selectivity (fold)” value in experiment [2] (HDAC1 IC50 / HDAC6 IC50) worked out at 1213 fold.

Regarding `Fc1cc(-c2nnc(C(F)F)o2)ccc1Cn1cc(-c2cccc(CN3CCOCC3)c2)nn1` [Compound 4404, 4-(3-(1-(4-(5-(difluoromethyl)-1,3,4-oxadiazol-2-yl)-2-fluorobenzyl)-1H-1,2,3-triazol-4-yl)benzyl)morpholine], the results for the IC50 in experiment [1] (setting [5]) and in experiment [2] (setting [6]) were above 50000 nM and 59.7 nM, respectively. For the same compound, in experiment [2] (HDAC1 IC50 / HDAC6 IC50), the “HDAC6 selectivity (fold)” value was determined as 837 fold.

`Fc1cc(-c2nnc(C(F)F)o2)ccc1Cn1cc(-c2ccccc2CNC2CCC2)nn1` [Compound 4589, N-(2-(1-(4-(5-(difluoromethyl)-1,3,4-oxadiazol-2-yl)-2-fluorobenzyl)-1H-1,2,3-triazol-4-yl)benzyl)cyclobutanamine]: the IC50 in experiment [1] (setting [3]) was above 50000 nM; in experiment [2] (setting [4]), 290 nM. For the same compound, the “HDAC6 selectivity (fold)” value in experiment [2] (HDAC6 over HDAC1) is on record as 172 fold.

As to `CCN1CC(c2cn(Cc3ccc(-c4nnc(C(F)F)o4)cn3)nn2)C1` [Compound 3951, 2-(difluoromethyl)-5-(6-((4-(1-ethylazetidin-3-yl)-1H-1,2,3-triazol-1-yl)methyl)pyridin-3-yl)-1,3,4-oxadiazole], the IC50 was above 50000 nM in experiment [1] (setting [5]) and 613 nM in experiment [2] (setting [6]). Further, in experiment [2] (HDAC1 IC50 / HDAC6 IC50), the “HDAC6 selectivity (fold)” value is recorded as 81 fold.

Take `CC(C)N1Cc2cccc(-c3cn(Cc4ccc(-c5nnc(C(F)F)o5)cn4)nn3)c2C1` [Compound 4597, 2-(difluoromethyl)-5-(6-((4-(2-isopropylisoindolin-4-yl)-1H-1,2,3-triazol-1-yl)methyl)pyridin-3-yl)-1,3,4-oxadiazole]: the IC50 in experiment [1] (setting [3]) is above 50000 nM; in experiment [2] (setting [4]), 61.5 nM. The “HDAC6 selectivity (fold)” value in experiment [2] (HDAC6 over HDAC1) stood at 813 fold.

`CC(C)N1CCC(c2cccc(-c3cn(Cc4ccc(-c5nnc(C(F)F)o5)cc4F)nn3)c2)CC1` [Compound 4292, 2-(difluoromethyl)-5-(3-fluoro-4-((4-(3-(1-isopropylpiperidin-4-yl)phenyl)-1H-1,2,3-triazol-1-yl)methyl)phenyl)-1,3,4-oxadiazole]: the figures for the IC50 in experiment [1] (setting [5]) and in experiment [2] (setting [6]) were above 50000 nM and 51.7 nM, respectively. For the same compound, the “HDAC6 selectivity (fold)” value in experiment [2] (HDAC1 IC50 / HDAC6 IC50) was 967 fold.
